The values that follow come from patent publication US20130136714A1, “FUNCTIONALIZED POLYMER NANOPARTICLES AND THE PHARMACEUTICAL USE THEREOF” (KAOHSIUNG MEDICAL UNIVERSITY, priority 2011, published 2013).

The target of data set [1] is folic acid receptors (FAR). The settings on record: read-out: dissociation constant (kd); cited from earlier work.
A short description of data set [2]: drug release of EPI micelles by dialysis in PBS buffer. As to conditions: pH = 7.4, 6.4 and 5.6. Type of data set: physicochemical. Here is the method:
[…] The outside PBS buffer is collected at different time points and then the fresh 30 mL PBS buffer is replaced. The drug concentration is measured and calculated based on a calibration curve generated in PBS buffer with the same pH value.

The subject of a further data set is KB cells. The data set is described as follows: cytotoxic test (IC50) for the EPI-loaded micelles (MTT). The class given is cell-based. As to conditions: Homo sapiens. The protocol: The results of the cytotoxic test for the drug-loaded micelle are presented as the half maximal inhibitory concentration, i.e. IC50, which is used to examine the biological or biochemical inhibitory effect of a compound. Thus, the IC50 represents the concentration of the drug-loaded micelle required to inhibit the growth of a half of the cancer cells.
5×10^3 cells/well KB cells are incubated in 100 μL of RPMI 1640 medium, and transferred into the 96-well plate for incubating 24 hrs.
Epirubicin.HCl and drug-loaded micelle is prepared at 20 μg/mL, in RPMI 1640 medium. After a serial of dilution, 100 μL/well of each concentration (20, 10, 5, 2.5, 1.25, 1 and 0.5 μg/mL) is added into the cultured plate for 24 hrs incubation.
After 24 hrs incubation, the medium containing the drug and the micelle is removed, and the plate is washed with 100 μL/well PBS buffer at pH=7.4 and further incubated in 100 μL/well fresh medium for 24 and 48 hrs.
The plate is added with 50 μL/well (2 mg/mL) MTT and placed in the incubator for 3 hrs. […] Then, the cell viability is calculated using the ELISA reader.

Another data set concerns KB cell line. Briefly: intracellular delivery by confocal laser scanning microscope. As to conditions: 0.625 μg/mL, cells incubated for 1 h. Type of data set: cell-based, human. Here is the method:
Human oral cancer cell line (KB cell line) is used to investigate the cell viability of the carrier and the drug-loaded micelle, and the expression of the drug-loaded micelle through the endocytosis is observed using a confocal laser scanning microscope (CLSM). The 4′,6-diamidino-2-phenylindole (DAPI) and the lysosomal probe (Lyso-Traker) are used for cell core staining and the lysosome staining, respectively. The drug at the concentration of 0.625 μg/mL is added according to the cell viability for the drug-loaded micelle. The KB cell line is cultured for 0.5, 1, 3, and 24 hrs, in which the blue parts are shown by the DAPI staining at the cell core; the red is the fluorescence of the EPI; the green is the fluorescence of the Lyso-Traker, and the purple is the overlap of EPI and DAPI and the yellow is the overlap of Lyso-Traker and EPI. The amounts of EPI entering the nuclei and the lysosomes (the purple and the yellow images) increase with the increase in the incubation time.
Intracellular delivery is observed using the confocal microscope. 18 mm cover slip is immersed in 0.1N HCl solution for one day and washed to remove the impurities on the slide. After being rinsed by the ddH2O, the slide is wiped and then immersed in 75% alcohol. […]

Values after ≈ are worked out from the molar mass of the structure shown.

Take `Nc1nc2ncc(CNc3ccc(C(=O)N[C@@H](CCC(=O)O)C(=O)O)cc3)nc2c(=O)[nH]1` [folic acid]: in data set [1], the Kd is 0.1 nM.
Take `COc1cccc2c1C(=O)c1c(O)c3c(c(O)c1C2=O)C[C@@](O)(C(=O)CO)C[C@@H]3O[C@H]1C[C@H](N)[C@@H](O)[C@H](C)O1` [EPI, Epirubicin]: the “drug release rate (in words)” value in data set [2] is “quickly released in a short time”. For the same compound, the IC50 was determined as 0.35 µg/mL (≈ 0.644 µM) in the data set with KB cells (incubating time 24 hr) and 0.2 µg/mL (≈ 0.368 µM) with KB cells (incubating time 48 hr). The “intracellular location of EPI fluorescence” value in the data set on KB cell line is “observed in the cell nuclei rather than in cytoplasm”.
